Numbered stars: 1 amine (or outer) side, 2 acyl side, 3 side chain; on linkers, the order of the positions; unused ones are H or OH. Bridge positions count the residues as written; N and C are the ends. Square brackets hold non-standard residues; d marks the D form. Peptide text beside a SMILES is read from it. * marks the point of attachment. pTerphenylCO(4''-OnC5H11) = CCCCCOc1ccc(-c2ccc(-c3ccc(C(=O)*)cc3)cc2)cc1; Orn(4R-OH,5R-OH) = O=C([C@H](C[C@@H](O)[C@@H](O)N[*:3])N[*:1])[*:2]; hTyr(3S-OH,4S-OH) = N[C@H](C(=O)O)[C@H](O)[C@@H](O)c1ccc(O)cc1; Pro(3S-OH,4S-Me) = C[C@H]1CN[C@H](C(=O)O)[C@H]1O; Hyp = O=C(O)[C@@H]1C[C@@H](O)CN1
Test: Dissolution of anidulafungin powder in the polysorbate 80 solution
Assay type: physicochemical
Description: Next the active ingredient is added. […] Even in small scale experiments the dissolution needs more than 4 hours. The dissolution can be accelerated by a pre-treatment of the active ingredient, preferably by dispersing the active ingredient in a pharmaceutically acceptable solvent, preferably in WFI, e.g. in an ultrasonic bath, and using this dispersion in step (b).
Dissolve the pre-weighed amount of polysorbate 80 in about 75% of total amount of WFI, rinse weighing container with 100 ml of WFI into reactor; stir not less than 20 min until excipient completely dissolves with a mechanical stirrer at a speed of 150-190 rpm.
Add about 7% of total amount of WFI to the pre-weighed amount of the active pharmaceutical ingredient (API) anidulafungin in glass bottle, screw the cap, shake bottle well in order to promote wetting of API and transfer it into ultrasonic bath for homogenisation. Take not less than 3 cycles of homogenisation for 10 min. Slightly shake the bottle after each cycle, in order to rinse API particles from the walls of the bottle's upper part into suspension. After white, well-homogenized suspension is obtained, transfer it into intermediate product preparation reactor, stir with a mechanical stirrer at a speed of 150-190 rpm until substance dissolves completely.
100% of the particles were below 750 µm. Particle sizes were analysed by laser diffraction with dry dispersion using a Malvern Mastersizer 3000 instrument. The size distribution was determined from the light scattering data using the theory of light scattering developed by Gustav Mie. […] It remained an undissolved residue of about 5% which corresponds to particles with more than about 400 µm. About 9-10% of the particles were bigger than 350 µm.
In a second experiment an aliquot of the anidulafungin powder was sieved through a 50 mesh sieve, corresponding to a mesh width of 297 µm to remove the bigger particles.

Structure (SMILES) | dissolution in the polysorbate 80 solution (after treatment of the powder in an ultrasonic bath) | time needed for dissolution (particles with a particle size of more than 400 µm, small scale experiments, solubilizing agent added) | undissolved residue (polysorbate 80 solution, vigorous stirring for 4 h, powder D90 339 µm) | dissolution in the polysorbate 80 solution (vigorous stirring for 4 h, powder D90 339 µm, unsieved) | dissolution in the polysorbate 80 solution (powder sieved through a 50 mesh sieve (297 µm), mechanical stirrer)
CCCCCOc1ccc(-c2ccc(-c3ccc(C(=O)N[C@H]4C[C@@H](O)[C@@H](O)NC(=O)[C@@H]5[C@@H](O)[C@@H](C)CN5C(=O)[C@H]([C@@H](C)O)NC(=O)[C@H]([C@H](O)[C@@H](O)c5ccc(O)cc5)NC(=O)[C@@H]5C[C@@H](O)CN5C(=O)[C@H]([C@@H](C)O)NC4=O)cc3)cc2)cc1 [anidulafungin powder, anidulafungin] ({pTerphenylCO(4''-OnC5H11)}-[Orn(4R-OH,5R-OH)]T[Hyp][hTyr(3S-OH,4S-OH)]T[Pro(3S-OH,4S-Me)]; lactam 1-C) | complete dissolution could be achieved | more than 4 hours | about 5% | could not be dissolved completely | 
CCCCCOc1ccc(-c2ccc(-c3ccc(C(=O)N[C@H]4C[C@@H](O)[C@@H](O)NC(=O)[C@@H]5[C@@H](O)[C@@H](C)CN5C(=O)[C@H]([C@@H](C)O)NC(=O)[C@H]([C@H](O)[C@@H](O)c5ccc(O)cc5)NC(=O)[C@@H]5C[C@@H](O)CN5C(=O)[C@H]([C@@H](C)O)NC4=O)cc3)cc2)cc1 [sieved powder, anidulafungin] ({pTerphenylCO(4''-OnC5H11)}-[Orn(4R-OH,5R-OH)]T[Hyp][hTyr(3S-OH,4S-OH)]T[Pro(3S-OH,4S-Me)]; lactam 1-C) |  |  |  |  | could be dissolved easily

Source: patent EP3058958B1, “ANIDULAFUNGIN COMPOSITION” (Selectchemie AG, priority 2015, dated 2016)
